Test results reported in patent publication US5098930A, “Heterocyclic derivatives” (Imperial Chemical Industries PLC, priority 1988, dated 1992).

What was measured:
[1] = target: T1, cyclooxygenase (Homo sapiens, UniProt P23219); experiment: test b) in vitro heparinised human blood, A23187 challenge, TxB2 radioimmunoassay; type: cell-based
T1 construct: incubating a test compound with heparinised human blood; endogenous in cells; host or cells: blood cells (platelets by own knowledge) in heparinised human blood
Experimental: As stated previously, the heterocyclic derivatives of the formula I are inhibitors of the enzyme 5-LO.
b) An in vitro assay system involving incubating a test compound with heparinised human blood, prior to challenge with the calcium ionophore A23187 and then indirectly measuring the inhibitory effects on 5-LO by assaying the amount of LTB4 using the specific radioimmunoassay described by Carey and Forder (F. Carey and R. A. Forder, Brit. J. Pharmacol. 1985, 84, 34P) which involves the use of a protein-LTB4 conjugate produced using the procedure of Young et alia (Prostaglandins, 1983, 26(4), 605-613). The effects of a test compound on the enzyme cyclooxygenase (which is involved in the alternative metabolic pathway for arachidonic acid and gives rise to prostaglandins, thromboxanes and related metabolites) may be measured at the same time using the specific radioimmunoassay for thromboxane B2 (TxB2) described by Carey and Forder (see above). This test provides an indication of the effects of a test compound against 5-LO and also cyclooxygenase in the presence of blood cells and proteins. It permits the selectivity of the inhibitory effect on 5-LO or cyclooxygenase to be assessed.

[2] = target: T2, 5-LO (Rattus norvegicus, UniProt P12527); experiment: test c) ex vivo assay, oral administration, blood collection, A23187 challenge, radioimmunoassay of LTB4; type: in vivo
T2 construct: blood collection, heparinisation, challenge with A23187 and radioimmunoassay of LTB4 and TxB2; endogenous in cells
T2 sequence (P12527 1-673): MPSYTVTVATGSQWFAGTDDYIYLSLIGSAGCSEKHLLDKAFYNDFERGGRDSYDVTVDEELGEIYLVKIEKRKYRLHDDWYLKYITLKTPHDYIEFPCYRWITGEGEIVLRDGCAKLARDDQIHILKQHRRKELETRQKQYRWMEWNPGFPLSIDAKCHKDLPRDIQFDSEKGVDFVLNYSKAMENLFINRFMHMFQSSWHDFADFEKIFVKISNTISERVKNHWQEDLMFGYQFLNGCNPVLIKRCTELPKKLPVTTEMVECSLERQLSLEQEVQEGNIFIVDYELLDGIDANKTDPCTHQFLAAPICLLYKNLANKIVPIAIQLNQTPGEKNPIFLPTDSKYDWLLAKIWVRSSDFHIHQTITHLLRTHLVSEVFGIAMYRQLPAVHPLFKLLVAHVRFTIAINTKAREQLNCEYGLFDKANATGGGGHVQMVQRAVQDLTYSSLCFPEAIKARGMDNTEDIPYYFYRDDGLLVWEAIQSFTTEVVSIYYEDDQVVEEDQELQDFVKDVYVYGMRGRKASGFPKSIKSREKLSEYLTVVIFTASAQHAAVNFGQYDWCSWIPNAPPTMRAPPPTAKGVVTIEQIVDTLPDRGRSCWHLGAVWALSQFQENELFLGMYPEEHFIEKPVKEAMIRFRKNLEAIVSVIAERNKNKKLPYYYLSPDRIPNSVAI
Experimental: c) An ex vivo assay system, which is a variation of test b) above, involving administration of a test compound (usually orally as the suspension produced when a solution of the test compound in dimethylsulphoxide is added to carboxymethylcellulose), blood collection, heparinisation, challenge with A23187 and radioimmunoassay of LTB4 and TxB2. This test provides an indication of the bioavailability of a test compound as an inhibitor of 5-LO or cyclooxygenase.

[3] = target: T3, 5-LO (Homo sapiens, UniProt P09917); experiment: test b) in vitro heparinised human blood, A23187 challenge, LTB4 radioimmunoassay; type: cell-based
T3 construct: incubating a test compound with heparinised human blood; endogenous in cells; host or cells: blood cells in heparinised human blood
T3 sequence (P09917 1-674): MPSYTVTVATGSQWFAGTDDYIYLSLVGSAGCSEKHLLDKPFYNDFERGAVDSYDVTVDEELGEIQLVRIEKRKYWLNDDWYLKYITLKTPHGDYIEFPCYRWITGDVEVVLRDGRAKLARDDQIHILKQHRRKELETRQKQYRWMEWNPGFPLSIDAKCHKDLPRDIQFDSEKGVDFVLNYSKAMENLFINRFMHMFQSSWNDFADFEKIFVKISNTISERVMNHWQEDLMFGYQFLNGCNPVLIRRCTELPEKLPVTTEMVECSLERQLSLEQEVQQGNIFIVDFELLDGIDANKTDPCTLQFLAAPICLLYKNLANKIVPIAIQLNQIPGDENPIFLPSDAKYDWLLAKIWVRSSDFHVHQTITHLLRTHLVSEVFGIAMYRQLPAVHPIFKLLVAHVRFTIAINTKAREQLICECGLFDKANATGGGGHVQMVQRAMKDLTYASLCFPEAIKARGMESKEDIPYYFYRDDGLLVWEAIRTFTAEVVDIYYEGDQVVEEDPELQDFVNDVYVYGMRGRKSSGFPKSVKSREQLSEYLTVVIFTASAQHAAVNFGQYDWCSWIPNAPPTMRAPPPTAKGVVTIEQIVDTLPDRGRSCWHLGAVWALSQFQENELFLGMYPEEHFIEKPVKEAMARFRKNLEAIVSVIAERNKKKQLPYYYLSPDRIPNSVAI
Experimental: b) An in vitro assay system involving incubating a test compound with heparinised human blood, prior to challenge with the calcium ionophore A23187 and then indirectly measuring the inhibitory effects on 5-LO by assaying the amount of LTB4 using the specific radioimmunoassay described by Carey and Forder (F. Carey and R. A. Forder, Brit. […] This test provides an indication of the effects of a test compound against 5-LO and also cyclooxygenase in the presence of blood cells and proteins. It permits the selectivity of the inhibitory effect on 5-LO or cyclooxygenase to be assessed.

T1 sequence (P23219 24-599): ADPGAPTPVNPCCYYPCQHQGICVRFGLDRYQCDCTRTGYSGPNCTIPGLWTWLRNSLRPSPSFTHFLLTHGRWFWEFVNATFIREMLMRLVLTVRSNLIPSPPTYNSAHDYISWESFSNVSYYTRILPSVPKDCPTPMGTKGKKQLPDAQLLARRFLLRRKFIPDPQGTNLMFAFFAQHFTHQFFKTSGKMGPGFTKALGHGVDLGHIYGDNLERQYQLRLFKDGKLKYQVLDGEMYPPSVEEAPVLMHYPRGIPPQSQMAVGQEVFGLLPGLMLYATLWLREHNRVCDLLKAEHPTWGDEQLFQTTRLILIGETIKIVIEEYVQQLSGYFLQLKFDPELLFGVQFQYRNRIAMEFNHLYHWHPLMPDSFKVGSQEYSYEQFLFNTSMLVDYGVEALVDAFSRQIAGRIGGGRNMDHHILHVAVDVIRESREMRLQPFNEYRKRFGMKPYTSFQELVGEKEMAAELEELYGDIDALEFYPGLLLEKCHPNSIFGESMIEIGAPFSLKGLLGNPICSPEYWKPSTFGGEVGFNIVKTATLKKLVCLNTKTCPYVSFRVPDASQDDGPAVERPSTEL

COC1(c2cccc(OCc3ccc4ccccc4c3)c2)CCOCC1 [4-methoxy-4-[3-(naphth-2-ylmethoxy)phenyl]tetrahydropyran]
IC50 [1]: > 40000 nM | ED50 [2]: 5 mg/kg | IC50 [3]: 100 nM
